Source: patent US9908879B2, “P2X3 and/or P2X2/3 compounds and methods” (Asana Biosciences, LLC, priority 2013, dated 2018)

Columns and labels:
P2X2/3 = molecular target: T1, P2X2/3 (UniProt P56373+Q9UBL9); assay: FLIPR intracellular calcium assay, P2X2/3; type: cell-based, human or rat; conditions: agonist at EC75, species of receptor not given
T1 construct: hP2X2/3 (Cat #6179)
T1 sequence (P56373 1-397): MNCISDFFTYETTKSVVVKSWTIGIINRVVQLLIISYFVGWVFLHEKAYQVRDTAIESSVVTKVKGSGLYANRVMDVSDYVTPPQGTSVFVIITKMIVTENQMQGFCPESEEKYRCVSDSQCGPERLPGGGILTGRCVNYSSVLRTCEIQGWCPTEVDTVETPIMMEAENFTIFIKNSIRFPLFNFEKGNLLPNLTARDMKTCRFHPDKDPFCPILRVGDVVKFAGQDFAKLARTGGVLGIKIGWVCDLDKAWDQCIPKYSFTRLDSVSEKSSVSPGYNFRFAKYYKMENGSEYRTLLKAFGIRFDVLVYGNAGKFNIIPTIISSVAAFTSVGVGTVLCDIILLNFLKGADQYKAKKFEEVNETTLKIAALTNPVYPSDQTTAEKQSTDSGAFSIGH
T1 sequence (Q9UBL9 1-471): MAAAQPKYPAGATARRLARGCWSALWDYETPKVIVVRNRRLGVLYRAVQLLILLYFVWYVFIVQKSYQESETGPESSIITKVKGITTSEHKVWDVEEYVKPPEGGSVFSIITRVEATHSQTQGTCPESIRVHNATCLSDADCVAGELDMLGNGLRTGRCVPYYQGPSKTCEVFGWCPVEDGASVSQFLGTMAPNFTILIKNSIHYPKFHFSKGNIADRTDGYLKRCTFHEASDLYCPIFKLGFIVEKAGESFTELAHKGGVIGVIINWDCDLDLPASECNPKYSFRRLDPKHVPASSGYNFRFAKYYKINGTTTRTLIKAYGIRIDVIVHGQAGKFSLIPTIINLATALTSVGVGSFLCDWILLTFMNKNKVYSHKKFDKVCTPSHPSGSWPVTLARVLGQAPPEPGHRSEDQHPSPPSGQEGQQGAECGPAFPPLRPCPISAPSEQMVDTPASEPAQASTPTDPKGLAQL
Text: (§1) The FLIPR® assay utilizes cells which express human or rat P2X3 or P2X2/3 receptors. Recombinant cells expressing hP2X3 (Cat #6188) and hP2X2/3 (Cat #6179) were procured from Chantest Corp. Rat P2X2 (NCBI Accession No: U14414) was amplified by PCR from PC12 cDNA (a rat adrenal medulla cell line). The PCR product obtained containing the protein coding sequence of rat P2X2 was cloned into EcoRV-digested and dephosphorylated vector pIRES-puro3 within the multiple cloning site (MCS). See, FIG. 1A.
(§2) Cryo-vial containing 6×10^6 cells (human P2X3-HEK/human P2X2/3-TRex293/rat P2X2/3-TRex293/rat P2X3 TRex-CHO) was thawed in a 37° C. water bath. Cells were suspended in 20 mL of respective cell plating media (See annexure for composition) in a 50 mL centrifuge tube. The cell viability was checked with the help of Trypan Blue dye. Upon washing, cells were plated in a black 384-well clear bottomed, sterile poly-D-lysine coated plate such that, each well contained 10,000 cells (15,000/well for hP2X3) in 30 μL cell plating media. The plate was incubated in a 5% CO2 incubator at 37° C. for 24 h.
(§3) The next day, prior to the assay, the cell plating media was removed from each well by decanting and gentle tapping. Thirty μL of FLIPR Calcium 4 dye solution was added to each well. The plate was incubated at 37° C. for 45 min (60 min for hP2X3). The plate was next equilibrated at room temperature for 15 minutes before placing it in a 384 well FLIPR for the assay.
(§4) Compounds were dissolved in DMSO and serially diluted following 11 point half log (3.16 fold) dilution with a starting concentration of 2 mM. Dilutions were mixed with assay buffer just before performing the assay.
(§5) Compounds were added to the respective wells of the assay-ready cell plate with the help of the FLIPR and fluorescence readings were captured for 5 min to observe any possible agonistic property of the compounds. The plate was then incubated at room temperature for 15 min. The cells were stimulated with respective agonist EC75 concentration and the fluorescence readings were captured for another 5 min by FLIPR. The difference in fluorescence readings in presence of the compounds were compared with that of the control wells (wells having no compound) to calculate the inhibitory potency of the compounds. The IC50 values of the compounds were determined using the Graph pad Prism software.

P2X3 = molecular target: T2, P2X3 (UniProt P56373); assay: FLIPR intracellular calcium assay, P2X3; type: cell-based, human or rat; conditions: agonist at EC75, species of receptor not given
T2 sequence (P56373 1-397): T1 sequence (P56373 1-397)
Text: as §1, §2, §3, §4, §5

[1] = system: acetic acid induced writhing (visceral pain); assay: Acetic acid induced writhing test; type: in vivo; conditions: mouse, oral gavage 20, 40 and 60 mg/kg, 30 min before i.p. acetic acid, counted 15 min
Method: Swiss albino mice of 30-40 g were included in the study. The mice were given an intraperitoneal injection of 0.7% v/v acetic acid solution at an injection volume of 10 mL/kg, 30 min after oral administration of vehicle or test article control. Test articles were administered, typically, at doses between 20 and 60 mg/kg. The mice were placed individually into glass chambers. The number of writhes produced in these animals was counted for 15 min following acetic acid administration. For scoring purposes writhing was indicated by stretching of the abdomen with simultaneous stretching of at least one hind limb. See, e.g., FIG. 4. Statistical analysis was done with One way ANOVA followed by Dunnett's multiple comparison tests. Comparison was done between treatment groups and vehicle with respect to total number of writhes and p<0.05 was considered statistically significant. Each group comprised of 6 animals.

[2] = system: formalin-induced hind limb flinches; assay: Formalin induced pain (Automated Nociception Analyzer test); type: in vivo; conditions: rat, oral gavage 100 mg/kg, 30 min before footpad formalin injection
Method: Male Sprague Dawley rats of young adult age group and body weight range of 200-250 g were included in the study. Animals were housed under a 12 h light/dark cycle with food and water ad libitum. Animals were acclimatized in the observation chambers of Automated Nociception Analyzer (ANA) for 45-60 min, twice daily for two days prior to the study day. On the day of the study, metal bands were glued to the plantar surface of the right hind paw of each animal enrolled in the study set and kept in plastic observation chambers for 10-15 min. Formalin injection was done in the animals after 0.5 or 1 h of oral treatment with test compound or vehicle (20% polyethylene glycol, 1% TweenTM 80 reagent, 79% water). Formalin injection of the animals was done with 50 μL of 2.5% formalin (freshly prepared from formaldehyde solution, Sigma, USA, Cat # F8775) injected subcutaneously in to the dorsum of right hind paw. Animals were placed back to their respective recording chambers of ANA immediately after injection. […] count data for each animal was recorded from 1 to 60 min post formalin injection, using ANA motion analysis software. The study was analyzed in 2 phases, the early phase extended from 0-10 min and second phase extended from 11-60 min post formalin injection. The data was collected in 5 min time bins and the counts of each bin were added up for total count of the phase. […]

Structure (SMILES) | IC50 (P2X2/3) [nM] | IC50 (P2X3) [nM] | pain responses (writhes) after acetic acid [1] | second phase flinching response to formalin [2]
Cc1ccc(-c2cnc3c(N4CCC(CF)CC4)cc(C(=O)NCc4ccc(C)[n+]([O-])c4)cn23)s1 [Example 132] | 1 to 100 | 1 to 100 | – | –
Cc1ccc(-c2cnc3c(N4CCC(C(F)(F)F)CC4)cc(C(=O)NCc4ccc(C)[n+]([O-])c4)cn23)s1 [Example 131] | 100 to 1000 | 1 to 100 | – | –
Cc1ccc(-c2cnc3c(N4CCC(C)(C)CC4)cc(C(=O)NCc4ccc(C)[n+]([O-])c4)cn23)s1 [Example 122] | 1 to 100 | 1 to 100 | – | –
Cc1ccc(-c2cnc3c(N4CCC(C)CC4)cc(C(=O)NCc4ccc(C)[n+]([O-])c4)cn23)s1 [Example 117] | 1 to 100 | 1 to 100 | – | –
Cc1cnc(-c2cnc3c(N4CCC(C)CC4)cc(C(=O)NCc4ccc(C)[n+]([O-])c4)cn23)s1 [Example 125] | 100 to 1000 | 100 to 1000 | – | –
Cc1ccc(-c2cnc3c(N4CCC(F)CC4)cc(C(=O)NCc4ccc(C)[n+]([O-])c4)cn23)s1 [Example 127] | 1 to 100 | > 10000 | – | –
Cc1ccc(-c2cnc3c(-n4nnnc4C4CC4)cc(C(=O)N[C@@H](C)c4nnc[nH]4)cn23)s1 [Example 167] | 100 to 1000 | 1 to 100 | – | –
CCCCc1cnc2c(N3CCC(C)CC3)cc(C(=O)N[C@@H](C)c3nnc[nH]3)cn12 [Example 9, (S)—N-(1-(4H-1,2,4-Triazol-3-yl)ethyl)-3-butyl-8-(4-methylpiperidin-1-yl)imidazo[1,2-a]pyridine-6-carboxamide] | 1000 to 10000 | 1000 to 10000 | – | –
Cc1ccc(-c2cnc3c(N4CCC(F)(F)CC4)cc(C(=O)N[C@@H](C)C4=NN=CC4)cn23)s1 [Example 143] | 100 to 1000 | 1000 to 10000 | – | –
Cc1ccc(-c2cnc3c(N(C)C4CCCCC4)cc(C(=O)NCc4ccc(C)[n+]([O-])c4)cn23)s1 [Example 126] | 1 to 100 | > 10000 | – | –
Cc1ccc(-c2cnc3c(N4CCC(F)(F)CC4)cc(C(=O)NCc4ccc(C)[n+]([O-])c4)cn23)s1 [Example 123] | 1 to 100 | > 10000 | – | –
COc1ccc(CNC(=O)c2cc(-n3nnnc3C3CCC3)c3ncc(-c4ccc(C)s4)n3c2)cn1 [Example 163] | 1 to 100 | > 10000 | – | –
CCCSc1cnc2c(N3CCC(C)CC3)cc(C(=O)NCc3ccc(C)[n+]([O-])c3)cn12 [Example 114] | – | 1 to 100 | – | –
CCc1cnnn1-c1cc(C(=O)NCc2ccc(C)nc2)cn2c(-c3ccc(C)s3)cnc12 [Example 22] | – | – | clear dose-related reduction | attenuated
Cc1ccc(-c2cnc3c(N4CCC(C)CC4)cc(C(=O)NCc4ccc[n+]([O-])c4)cn23)s1 [Example 147] | 100 to 1000 | 1000 to 10000 | – | –
Cc1ccc(-c2cnc3c(Nc4ccccc4)cc(C(=O)NCc4ccc(C)[n+]([O-])c4)cn23)s1 [Example 89] | 100 to 1000 | 1 to 100 | – | –
Cc1ccc(-c2cnc3c(NC4CCCCC4)cc(C(=O)NCc4ccc(C)[n+]([O-])c4)cn23)s1 [Example 120] | 1 to 100 | 1 to 100 | – | –
Cc1ccc(-c2cnc3c(-n4nnnc4C4CCC4)cc(C(=O)N[C@@H](C)c4nnc[nH]4)cn23)s1 [Example 165] | 1 to 100 | 1 to 100 | – | –
Cc1ccc(-c2cnc3c(NC4CCCCC4)cc(C(=O)NCc4ccc(C(F)(F)F)[n+]([O-])c4)cn23)s1 [Example 124] | 100 to 1000 | 100 to 1000 | – | –
Cc1ccc(CNC(=O)c2cc(N3CCC(C)CC3)c3ncc(-c4ccc(Cl)s4)n3c2)c[n+]1[O-] [Example 119] | 100 to 1000 | 1 to 100 | – | –
